Here are results for three compounds from patent publication US20180369186A1, “METHOD FOR MODULATING AUTOPHAGY AND APPLICATIONS THEREOF” (JAWAHARLAL NEHRU CENTRE FOR ADVANCED SCIENTIFIC RESEARCH, priority 2015, published 2018).

One series relates to GFP-Atg8. The series can be described thus: GFP-Atg8 processing assay (general autophagy). It counts as cell-based, Saccharomyces cerevisiae. As for the experimental part:
Saccharomyces cerevisiae strain containing the GFP-Atg8 (pRS 316 vector backbone) plasmid is grown in synthetic complete medium lacking uracil (SC-URA) under appropriate conditions (30° C. 250 rpm). From this, a secondary culture is inoculated at A600 nm=0.2 and grown as above until A600 nm reached ˜0.65. The cultures are transferred to SD-N (nitrogen starvation) medium at A600 nm=3, separately with and without the compounds, and samples are collected at different time intervals. Sample preparation is done by the TCA precipitation method and immunoblotting is performed using standard methods.
Yeast strains (A600=3) are resuspended in trichloroacetic acid (12.5%) and stored at −80° C. for at least half an hour. Samples are thawed on ice, centrifuged (16000×g, 10 min) and pellet is washed twice with ice-cold acetone (80%). Pellets are air dried, resuspended in lysis (1% SDS and 0.1 N NaOH) solution and Laemmii buffer and boiled for 10 min.

The test system of a further series is yeast cells. The series can be described thus: Yeast growth assay (WT EGFP cells). It counts as cell-based, S. cerevisiae. The settings on record: 50 μM. Here is the method:
Growth assays: In a 384 well plate, appropriate yeast strains are seeded (A600˜0.07) with and without drugs and incubated (80 μl, 30° C. and 420 rpm) in a multiplate reader (Varioskan Flash, Thermo Scientific) for 48 h with automatic absorbance (A600) recording every 20 min. Growth curves are plotted and analyzed using GraphPad Prism.
Appropriate yeast strains are seeded (A600 ˜0.07) with or without drugs in a 384-well plate and incubated (420 rpm, 30° C. and 80 μl) in a multiplate reader (Varioskan Flash, Thermo Scientific) for 48 h that records absorbance (A600) automatically for every 20 min. Growth curves are plotted using GraphPad Prism.

Series [1] deals with TH+ dopaminergic neurons in SNpc. The series can be described thus: MPTP mouse model: TH+ dopaminergic neurons in SNpc (stereology, densitometry, volume). It counts as in vivo, mice. As for the experimental part:
As described by Vernice Jackson-Lewis & Serge Przedborski (2007), 23.4 mg/kg MPTP.HCl (equivalent to 20 mg/kg free base) in 10 ml/kg body wt. of saline is administered intraperitoneally (i.p.) for 4 times at 2 h intervals.
All mice are sacrificed 9 days post MPTP administration and brains are processed for immunohistochemistry.
Mice are anaesthetized using Halothane BP (Piramal Healthcare) inhalation and perfused intracardially with normal saline followed by 4% PFA in 0.1 M phosphate buffer, pH 7.4. Brains are removed quickly and post-fixed with 4% PFA for 24 h-48 h at 4° C. Following cryoprotection in 15% and 30% sucrose, 40 μm thick coronal cryosections of midbrain are collected serially on gelatinized slides. Immunoperoxidase labelling protocol as identical to that reported. Briefly, endogenous peroxidase is quenched using H2O2 (0.1%) in methanol (70%), followed by blocking of non-specific staining by buffered solution (3%) of bovine serum albumin for 4 h at room temperature. Sections are incubated with TH primary antibody (1:500) followed by biotin conjugated secondary antibody (1:200 dilution, Vector Laboratories). Tertiary labelling is performed with avidin-biotin complex solution (1:100, Vector Laboratories). Staining is visualized using 3′-3′-diaminobenzidine (0.05%) as a chromogen in a solution of 0.1M acetate imidazole buffer (pH 7.4) and H2O2 (0.1%). Negative controls are processed identically, except that primary antibody is replaced with dilution buffer.
As described by Y. Fu et al., SNpcis delineated using the 4× objective of Olympus BX61 Microscope (Olympus) equipped with Stereo Investigator Software Version 7.2 (MicroBrightField). Stereological quantification is performed using optical fractionator probe with slight modifications(P. A. Alladi et al.). Briefly, every sixth midbrain section containing SNpc is chosen and TH^+ cells are counted under 100× objective, with a regular grid interval of 22500 μm^2 (x=150 μm, y=150 μm) and counting frame with an area of 3600 μm^2 (x=60 μm, y=60 μm) (FIG. 10B). Mounted thickness is determined at every fifth site, averaging to 25 μm. Guard zone 4 μm is applied on either side, thus providing 17 μm of z-dimension within optical dissector. The quantification is performed starting with first anterior appearance of TH^+ neurons in SNpc to caudal most part. The SNpc volume is determined by planimetry (FIG. 10C) and total numbers of neurons according to mean measured thickness are noted.
High magnification images of TH stained nigral DAergic neurons, captured for offline assessment of Tyrosine Hydroxylase (TH) enzyme expression levels=used. Expression intensity is measured using a Windows based image analysis system (Q Win V3, Leica Systems). Cumulative mean is derived from the values obtained from sampling, approximately 200 DAergic neurons per animal. Intensity output is measured on a grey scale of 0-255, where 0 equals intense staining and 255 means absence of staining.
The mice are distributed into three groups' viz., vehicle, MPTP and MPTP+XCT 790 injected respectively. The vehicle group receives intraperitoneal injections of dimethyl sulfoxide (DMSO) injections i.e. the solvent. The MPTP group receives 23.4 mg/kg MPTP.HCl in 10 ml/kg body wt. of saline is administered intraperitoneally for 4 times at 2 h interval. The MPTP+XCT 790 group mice are injected with 5 mg/kg body wt, of XCT 790 dissolved in DMSO, alongside the first MPTP injection. […]

Series [2] deals with SH-SY5Y cells overexpressing EGFP-α-synuclein. The series can be described thus: Cell viability of SH-SY5Y cells overexpressing α-synuclein (CellTitre-Glo). It counts as cell-based, human. As for the experimental part: SH-SY5Y cells are seeded on a 96 well plate and transfected with GFP-SNCA only and/or is cotransfected with shRNA GSK3B and GFP-SNCA. To cells, the drugs were added (24 h) after 48 h of transfection. Then, the cell viability was measured using the CellTitre-Glo® (Promega) and luminescence was measured using Varioskan Flash (Thermo Scientific).
SH-SY5Y cells are seeded onto tissue culture treated 96 well plate and then transfected with EGFP-α-synuclein only and/or co-transfected with siRNA. To cells, appropriate drugs are added (24 h) after 48 h of transfection. Using luminescence-based CellTitre-Glo® (Promega) kit, the cell viability is assayed using automated microtitre plate reader Varioskan Flash (Thermo Scientific) […].

[3] abbreviates: starvation, 4 h and 6 h, 50 μM, versus untreated.

Take `O=C1Nc2cc(Br)ccc2/C1=C1/Nc2ccccc2/C1=N\O` [6-Bio, (2′Z,3′E)-6-Bromoindirubin-3′-oxime]: the “autophagy induction / flux, growth condition” value in the series on GFP-Atg8 (growth condition, 6 h, 50 μM) is “dramatically induces autophagy”. The “increase in autophagic flux, growth condition” value with GFP-Atg8 (growth condition, 50 μM, versus untreated) is recorded as “approximately 3 fold”. Moreover, in the series with GFP-Atg8 (setting [3]), the “increase in autophagic flux, starvation condition” value was 2 fold and the “increase in autophagy induction, starvation condition” value stood at 2 fold. For the same compound, the “effect on growth of yeast cells” value with yeast cells is listed as “does not affect the growth of yeast cells”. Further, the “decrease in SNpc volume upon MPTP administration” value in series [1] (5 mg/kg i.p., Co and Pro groups) is “not seen”. Further, the “cell viability of SNCA over expressed SH-SY5Y cells” value in series [2] (SNCA over expressed for 72 h) is on record as “significantly increased”. The “cytoprotection when GSK3B expression is silenced” value in series [2] (shRNA GSK3B silenced, SNCA over expressed) is given as “marginal cytoprotection”.

With `Cc1ccc(S(=O)(=O)/C=C/C#N)cc1` [Bay11, 3-[(4-methylphenyl)sulfonyl]-(2E)-propenenitrile], in the series with GFP-Atg8 (starvation), the “GFP-Atg8 labelled autophagosomes, fluorescence microscopy” value is “accumulation of punctate structures outside the vacuole” and the “release of GFP from GFP-Atg8 (general autophagy)” value is listed as “slower release of GFP”.

Consider `COc1cc(C=C(C#N)C(=O)Nc2nnc(C(F)(F)F)s2)ccc1OCc1ccc(C(F)(F)F)cc1C(F)(F)F` [XCT 790, 3-[4-(2,4-Bis-trifluoromethylbenzyloxy)-3-methoxyphenyl]-2-cyano-N-(5-trifluoromethyl-1,3,4-thiadiazol-2-yl)acrylamide], for which, in the series with yeast cells, the “effect on growth of yeast cells” value is on record as “does not affect the yeast growth”. Besides, the “prevention of SNpc volume shrinkage” value in series [1] (5 mg/kg, MPTP+Co vs MPTP) is “approximately 85%”. In addition, the “alleviation of MPTP induced dopaminergic neuronal loss” value in series [1] (5 mg/kg, co-administration with MPTP) is recorded as 80%. In series [2] (α-syn over expressed cells, 5 μM), the “increase in cell viability, untreated vs treated” value is about 4 fold. Besides, the “cell viability, XCT 790 vs XCT 790+3-MA” value in series [2] (α-syn over expressed cells, with 3-MA) is listed as about 4 fold.
